The subject of data set [1] is transgenic fruit flies and double transgenic mice expressing Aβ42. The following applies: cited from earlier work; for treatment of Aβ42-induced memory loss: transgenic fruit flies and double transgenic mice expressing Aβ42, WO2012/103282; for curative effect in screening: compounds screened in WO2012/103282.
Data set [2] has as its system primary isolated fetal mouse cerebral cortical neuron. Nature of the data set: Neuroprotective activity assay against Aβ42 oligomer toxicity, cell viability detected with WST-8. The following applies: 24 h. On the technique in general: Tetrazolium assays rely on reduction of a dye to a coloured formazan, in cell work by metabolically active cells.
Where [3] appears, read: 0.01 μM/L drug + Aβ42 10 μmol/L.
The mark [4] stands for this setting: 1000 μM/L drug + Aβ42 10 μmol/L.
[5] abbreviates: Aβ42 oligomer 10 μmol/L, compared with model group.
[6] abbreviates: 0.001 μM/L drug + Aβ42 10 μmol/L.

Consider `CCN1CCN(Cc2ccc(-c3cc4c(N[C@H](C)c5ccccc5)ncnc4[nH]3)cc2)CC1` [AEE 788], for which, in data set [1], the “treatment of Aβ42-induced memory loss” value is on record as “effective”.

With `COc1cc2c(Nc3ccc(Br)cc3F)ncnc2cc1OCC1CCN(C)CC1` [ZD-6474], the “treatment of Aβ42-induced memory loss” value in data set [1] is listed as “effective”.

Take `COc1cc2c(Nc3ccc(Cl)c(Cl)c3F)ncnc2cc1OC[C@@H]1C[C@@H]2CN(C)C[C@@H]2C1` [XL647]: in data set [1], the “treatment of Aβ42-induced memory loss” value is “effective”.

For `CC#CC(=O)Nc1ccc2ncnc(Nc3cccc(Br)c3)c2c1` [CL-387785], the “treatment of Aβ42-induced memory loss” value in data set [1] is on record as “effective”.

For `Cc1c(NC(=O)OC[C@@H]2COCCN2)cn2ncnc(Nc3ccc4c(cnn4Cc4cccc(F)c4)c3)c12` [BMS-599626], the “treatment of Aβ42-induced memory loss” value in data set [1] is reported as “effective”.

On to `N#C/C(=C\c1ccc(N2CCOCC2)o1)C(=O)NCCc1c[nH]c2ccccc12` [JKF-027], for which, in data set [1], the “curative effect in screening” value is “preferable curative effect”. Further, in data set [1], the “treatment of Aβ42-induced memory loss” value is “effective”. The “Mean value of cell viability based on three independent replicates” value (“Mean value of cell viability based” below) in data set [2] (0.01 μM drug + Aβ42 10 μmol/L) came to 46.83%; in data set [2] (0.1 μM drug + Aβ42 10 μmol/L) it was 61.39%; in data set [2] (1.0 μM drug + Aβ42 10 μmol/L) it was 65.31%; in data set [2] (10 μM drug + Aβ42 10 μmol/L), 77.28%; in data set [2] (100 μM drug + Aβ42 10 μmol/L), 40.52%; in data set [2] (1000 μM drug + Aβ42 10 μmol/L) it was 21.89%. The “Cell viability data in the first independent test” value in data set [2] (setting [3]) was found to be 49.59%; in data set [2] (0.1 μM/L drug + Aβ42 10 μmol/L), 77.44%; in data set [2] (1 μM/L drug + Aβ42 10 μmol/L), 61.59%; in data set [2] (10 μM/L drug + Aβ42 10 μmol/L), 87.60%; in data set [2] (100 μM/L drug + Aβ42 10 μmol/L), 51.83%; in data set [2] (setting [4]), 27.85%. For the same compound, the “Cell viability data in the second independent test” value in data set [2] (setting [3]) is on record as 45.88%; in data set [2] (0.1 μM/L drug + Aβ42 10 μmol/L) it was 48.40%; in data set [2] (1 μM/L drug + Aβ42 10 μmol/L) it was 61.01%; in data set [2] (10 μM/L drug + Aβ42 10 μmol/L), 69.75%; in data set [2] (100 μM/L drug + Aβ42 10 μmol/L) it was 46.89%; in data set [2] (setting [4]) it was 18.66%. The “Cell viability data in the third independent test” value is given as 45.00% in data set [2] (setting [3]); 58.33% in data set [2] (0.1 μM/L drug + Aβ42 10 μmol/L); 73.33% in data set [2] (1 μM/L drug + Aβ42 10 μmol/L); 74.50% in data set [2] (10 μM/L drug + Aβ42 10 μmol/L); 22.83% in data set [2] (100 μM/L drug + Aβ42 10 μmol/L); 19.17% in data set [2] (setting [4]). Also, the “effective concentration range (anti-toxic effect against Aβ42 oligomer)” value in data set [2] (setting [5]) fell in the range of 0.1 to 10 µmol/L. In addition, the optimum anti-toxic concentration in data set [2] (setting [5]) was 0.1 to 10 µmol/L.

`N#C/C(=C\c1ccc(-c2cc(C(=O)O)ccc2Cl)o1)C(=O)Nc1ccc(F)cc1` [JKF-006]: in data set [1], the “curative effect in screening” value is “preferable curative effect” and the “treatment of Aβ42-induced memory loss” value was “effective”.

`C=CCNC1=C2C[C@@H](C)C[C@H](OC)[C@H](O)[C@@H](C)/C=C(\C)[C@H](OC(N)=O)[C@@H](OC)/C=C\C=C(/C)C(=O)NC(=CC1=O)C2=O` [Compound 17-AAG]: in data set [1], the “treatment of Aβ42-induced memory loss” value is “effective”.

Take `C=CCNc1c(O)cc2c(O)c1C[C@@H](C)C[C@H](OC)[C@H](O)[C@@H](C)/C=C(\C)[C@H](OC(N)=O)[C@@H](OC)/C=C\C=C(/C)C(=O)N2` [IPI-504]: the “treatment of Aβ42-induced memory loss” value in data set [1] was “effective”.

Turning to `CCOc1cc2ncc(C#N)c(Nc3ccc(OCc4cccc(F)c4)c(Cl)c3)c2cc1NC(=O)/C=C/CN(C)C` [HKI-357], the “treatment of Aβ42-induced memory loss” value in data set [1] is reported as “effective”.

As to `CN(C)C/C=C/C(=O)Nc1cc2c(Nc3ccc(F)c(Cl)c3)ncnc2cc1O[C@H]1CCOC1` [BIBW 2992], in data set [1], the “treatment of Aβ42-induced memory loss” value is “effective”.

In the case of `CCOc1cc2ncc(C#N)c(Nc3ccc(F)c(Cl)c3)c2cc1NC(=O)/C=C/CN(C)C` [EKB-569], in data set [1], the “treatment of Aβ42-induced memory loss” value is recorded as “effective”.

In the case of `Cc1nc(Nc2ncc(C(=O)Nc3c(C)cccc3Cl)s2)cc(N2CCN(CCO)CC2)n1` [Compound I, N-(2-chloro-6-methylphenyl)-2-{6-[4-(3-hydroxyethyl)-1-piperazinyl]-2-methyl-4-pyrimidinylamino}-5-thiazolecarboxamide], the “Mean value of cell viability based” value was found to be 46.65% in data set [2] (0.001 μM drug + Aβ42 10 μmol/L); 67.99% in data set [2] (0.01 μM drug + Aβ42 10 μmol/L); 71.02% in data set [2] (0.1 μM drug + Aβ42 10 μmol/L); 72.44% in data set [2] (1.0 μM drug + Aβ42 10 μmol/L); 63.20% in data set [2] (10 μM drug + Aβ42 10 μmol/L); 73.40% in data set [2] (100 μM drug + Aβ42 10 μmol/L). Besides, the “Mean value of cell viability based” value in data set [2] (1000 μM drug + Aβ42 10 μmol/L) is recorded as 64.34%. Further, the “Cell viability data in the first independent test” value stood at 26.98% in data set [2] (setting [6]); 69.31% in data set [2] (setting [3]); 80.78% in data set [2] (0.1 μM/L drug + Aβ42 10 μmol/L); 76.90% in data set [2] (1 μM/L drug + Aβ42 10 μmol/L); 68.61% in data set [2] (10 μM/L drug + Aβ42 10 μmol/L); 74.43% in data set [2] (100 μM/L drug + Aβ42 10 μmol/L). For the same compound, the “Cell viability data in the first independent test” value in data set [2] (setting [4]) amounted to 76.72%. In addition, the “Cell viability data in the second independent test” value was 54.70% in data set [2] (setting [6]); 67.22% in data set [2] (setting [3]); 64.25% in data set [2] (0.1 μM/L drug + Aβ42 10 μmol/L); 65.73% in data set [2] (1 μM/L drug + Aβ42 10 μmol/L); 56.51% in data set [2] (10 μM/L drug + Aβ42 10 μmol/L); 86.16% in data set [2] (100 μM/L drug + Aβ42 10 μmol/L). Further, the “Cell viability data in the second independent test” value in data set [2] (setting [4]) was determined as 63.92%. The “Cell viability data in the third independent test” value in data set [2] (setting [6]) was 58.28%; in data set [2] (setting [3]), 67.46%; in data set [2] (0.1 μM/L drug + Aβ42 10 μmol/L), 68.05%; in data set [2] (1 μM/L drug + Aβ42 10 μmol/L), 74.70%; in data set [2] (10 μM/L drug + Aβ42 10 μmol/L), 64.50%; in data set [2] (100 μM/L drug + Aβ42 10 μmol/L), 59.62%. In data set [2] (setting [4]), the “Cell viability data in the third independent test” value stood at 52.37%. For the same compound, the “dose span of effective concentration range relative to JKF-027” value in data set [2] (Aβ42 oligomer 10 μmol/L) is reported as 10^4 times. Further, the “effective concentration range (anti-toxic effect against Aβ42 oligomer)” value in data set [2] (setting [5]) was in the range of 0.01 to 1000 µmol/L.
